These results are taken from paper PMC4032254, “Targeting of the MYCN Protein with Small Molecule c-MYC Inhibitors” (PLoS ONE, 2014).

A word on the Kd: it is the concentration at which binding is half-saturated. A high value points to lower affinity.

The target in test [1] is T1, bHLHZip domain of human c-MYC (353–437) (Homo sapiens, UniProt P01106).
T1 construct: N-terminally His-tagged bHLHZip c-MYC (353–437) and bHLHZip MYCN (380–464) proteins were over-expressed in E. coli BL21 (DE3); made in house; host or cells: E. coli BL21 (DE3)
Nature of the test: Surface plasmon resonance binding to bHLHZip of c-MYC. The settings on record: SPR, 25°C, steady state, mean ± SD. Here is the method:
(§1) For all SPR binding measurements the compounds were injected at increasing concentrations.
(§2) In order to determine the affinity of the compounds to c-MYC and MYCN, the response for each small molecule was plotted against the analyte (compound) concentration. The KD was defined as the concentration of analyte at 50% of the experimental maximal Response (Rmax). Approximate KD-values could be determined for all compounds except for #764. […] In summary, all active c-MYC inhibitors tested were also found to bind directly to MYCN.
N-terminally His-tagged bHLHZip c-MYC (353–437) and bHLHZip MYCN (380–464) proteins were over-expressed in E. coli BL21 (DE3) bacteria (Stratagene) at 37°C in LB media with kanamycin. Cultures were induced with Isopropyl β-D-1-thiogalactopyranoside (0,1 mg/ml) at an OD of 0.6 and harvested after 4 hours. […] Protein concentrations were determined by SDS-page comparing purified proteins to a standard curve of BSA loaded on the gel.
(§3) Surface Plasmon Resonance (SPR) experiments were performed using a Biacore T200 (GE Healthcare) instrument at 25°C. […] The obtained data was analyzed by the Biacore T200 Evaluation Software 2.0 (GE Healthcare). […]
(In general: Surface plasmon resonance follows binding to a sensor surface in real time, without labels.)

Test [2] concerns the target T2, bHLHZip domain of human MYCN (380–464) (Homo sapiens, UniProt P04198).
T2 construct: N-terminally His-tagged bHLHZip c-MYC (353–437) and bHLHZip MYCN (380–464) proteins were over-expressed in E. coli BL21 (DE3); made in house; host or cells: E. coli BL21 (DE3)
Nature of the test: Surface plasmon resonance binding to bHLHZip of MYCN. The settings on record: SPR, 25°C, steady state, mean ± SD. Here is the method:
as §1, §2
N-terminally His-tagged bHLHZip c-MYC (353–437) and bHLHZip MYCN (380–464) proteins were over-expressed in E. coli BL21 (DE3) bacteria (Stratagene) at 37°C in LB media with kanamycin. Cultures were induced with Isopropyl β-D-1-thiogalactopyranoside (0,1 mg/ml) at an OD of 0.6 and harvested after 4 hours. After sonication of the proteins in 50 mM NaH2PO4, 100 mM NaCl and 10 mM Tris-HCl (pH = 8,0) for 6×30 seconds, the pellet was resuspended in 100 mM NaH2PO4, 10 mM Tris-HCl, 10 mM imidazole and 8 M urea (pH = 8,0) prior to additional sonication for 6×30 seconds. The proteins were then loaded onto a Ni-Sepahrose High Performance His-Trap column (GE Healthcare), washed with ten column volumes of 100 mM NaH2PO4, 10 mM Tris-HCl, 40 mM imidazole and 8 M urea (pH = 8,0) and finally eluted with two column volumes 100 mM NaH2PO4, 10 mM Tris-HCl, 500 mM imidazole and 8 M urea (pH = 8,0). Fractions without visible higher molecular mass contaminations, as judged by SDS-page, were pooled and refolded by dialysis in 50 mM NaH2PO4, 100 mM NaCl, 10 mM Tris-HCl (pH = 8,0), 5 mM EDTA, 2 mM DTT and decreasing concentrations of urea (6 M, 4 M, 2 M and 0 M). […] Protein concentrations were determined by SDS-page comparing purified proteins to a standard curve of BSA loaded on the gel.
as §3

Test [3] concerns the target T3, MYCN/MAX interaction (Homo sapiens, UniProt P04198).
T3 construct: endogenous in cells; host or cells: SMS-KCN69n (human MYCN-amplified neuroblastoma)
T3 sequence (P04198 1-464): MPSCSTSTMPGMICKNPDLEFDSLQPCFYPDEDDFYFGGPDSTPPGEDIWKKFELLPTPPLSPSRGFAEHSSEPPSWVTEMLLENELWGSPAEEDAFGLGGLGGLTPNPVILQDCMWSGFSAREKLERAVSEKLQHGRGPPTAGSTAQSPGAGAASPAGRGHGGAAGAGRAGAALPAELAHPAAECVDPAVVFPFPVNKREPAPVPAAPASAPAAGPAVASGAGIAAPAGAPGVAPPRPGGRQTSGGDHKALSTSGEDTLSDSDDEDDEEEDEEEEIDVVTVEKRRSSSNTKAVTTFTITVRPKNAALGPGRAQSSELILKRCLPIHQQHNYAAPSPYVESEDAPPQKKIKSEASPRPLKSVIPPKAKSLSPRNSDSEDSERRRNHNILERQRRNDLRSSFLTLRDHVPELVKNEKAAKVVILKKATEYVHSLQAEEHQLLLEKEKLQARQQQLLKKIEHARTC
Nature of the test: Proximity ligation assay (PLA) for MYCN/MAX interaction in SMS-KCN69n cells. The class given is cell-based. The source says: To investigate if the other small molecules also have an effect on MYCN/MAX dimerization we performed a proximity ligation assay (PLA) using MYCN-amplified SMS-KCN69n NB cells. […] No signal was detected in any of the experimental negative controls (Figure S4).
Figure 3 Reduction of MYCN/MAX interaction in NB cells after treatment with small molecules. A) Proximity ligation assay (PLA) for MYCN/MAX interaction after treatment of SMS-KCN69n cells with the different small molecules at the indicated concentrations for 6 hours. […] DNA is stained with DAPI. Scale bar: […]. The pictures are representative from three independent experiments. B) Quantification of the PLA signals per cell after treatment with the different compounds. Error bars indicate standard error of the mean.
40×10^3 SMS-KCN69n cells were seeded on collagen coated coverslips and grown for 24 hours and treated for 6 hours the next day. After 6 hours the cells were washed in PBS and treated as previously described. The PLA assay was performed after manufacturer's instructions with the Duolink kit (Olink, Uppsala, Sweden). The cells were incubated with primary antibody against MYCN (NCMII100, St Cruz Bio) 1∶500 and Max (C-17, St Cruz Bio) 1∶500 for 1 hour in a humidity chamber at 37°C, which were diluted in antibody diluent provided by the manufacturer. MYCN (1∶500) and FAS (A-20, St Cruz Bio) 1∶500 as well as MAX (1∶500) and GFP (C-2, St Cruz Bio) 1∶500 antibodies were used in combination in order to test for any unspecific binding of the secondary antibodies or unspecific signals. […]
The confocal images of the cells were acquired at 63× magnification using a motorized axiovert fluorescence microscope 200 M LCI (Zeiss GmBH, Göttingen, Germany) including a CSU10 Yokogawa head; a multilens/multipinhole array aperture (Yokogawa, Japan), an ORCA ER cold CCD camera; detector array 1344×1024px (Hammamatsu, Japan) and two continuous wave diode-pumped solid-state (DPSS) lasers for fluorescence excitation (Cobolt, Sweden); Cobolt Calypso 491 nm DPSS (excitation of green PLA fluorophore) and Cobolt Jive 561 nm DPSS (excitation of Alexa Fluor 568). […] A total amount of at least 120 cells were analyzed for all compounds. The PLA signals were analyzed using the open source image analysis program Image J (NIH, Bethseda, USA) and the amount of PLA signal per cell was calculated. Two persons analyzed the images independently in a blind fashion.
In order to quantify the PLA signal from the total z-depth of each cell confocal z-stacks was projected in z and identically processed regarding background subtraction. The PLA signal was then quantified blindly and automatically using a find maxima-based algorithm in ImageJ (plugin routine developed by Dr. E. Flaberg and Professor L. Szekely, KI and available upon request). […]

T1 sequence (P01106 368-452): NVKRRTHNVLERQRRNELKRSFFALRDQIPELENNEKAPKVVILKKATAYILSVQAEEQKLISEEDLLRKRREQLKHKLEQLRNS

Turning to `CCc1ccc(C=C2SC(=O)NC2=O)cc1` [C-m/z 232], the Kd came out at 82.3 µM in test [1] and 87.1 µM in test [2]. Moreover, the “effect on MYCN/MAX interaction (PLA) at 112.5 µM” value in test [3] (112.5 µM) was “not able to effect the MYCN/MAX interaction”. The “effect on MYCN/MAX interaction (PLA)” value in test [3] (6 hours treatment, compared to DMSO) is given as “did not affect MYCN/MAX dimer formation”.
